Results published in ChEMBL document CHEMBL1150012, “Enantioselective synthesis of a pyrrolo-benzothiadiazine derivative S 18986, a new AMPA receptor positive modulator” (Bioorg Med Chem Lett, 1996).

Assays:
[1] = molecular target: Glutamate receptor 1 (Rattus norvegicus) (UniProt P19490); test: (§1) Compound was evaluated to potentiate response of AMPA-activated current in Xenopus oocytes expressing Ionotropic glutamate receptor AMPA; assay type: functional, cell-based; settings: Oocyte
[2] = molecular target: Glutamate receptor ionotropic AMPA (Homo sapiens) (UniProt P48058+P42263+P42262+P42261); test: as §1; assay type: functional, cell-based; settings: Oocyte
[3] = molecular target: Glutamate receptor ionotropic kainate (Homo sapiens) (UniProt P39086+Q16478+Q16099+Q13002+Q13003); test: Compound was evaluated to potentiate response to Ionotropic glutamate receptor kainate; assay type: protein-complex assay
[4] = molecular target: Glutamate [NMDA] receptor (Homo sapiens) (UniProt Q05586+Q12879+Q13224+O15399+O60391+Q14957+Q8TCU5); test: Compound was evaluated to potentiate response to NMDA receptor; assay type: protein-complex assay

Glutamate receptor 1 (Rattus norvegicus), sequence (P19490 whole entry): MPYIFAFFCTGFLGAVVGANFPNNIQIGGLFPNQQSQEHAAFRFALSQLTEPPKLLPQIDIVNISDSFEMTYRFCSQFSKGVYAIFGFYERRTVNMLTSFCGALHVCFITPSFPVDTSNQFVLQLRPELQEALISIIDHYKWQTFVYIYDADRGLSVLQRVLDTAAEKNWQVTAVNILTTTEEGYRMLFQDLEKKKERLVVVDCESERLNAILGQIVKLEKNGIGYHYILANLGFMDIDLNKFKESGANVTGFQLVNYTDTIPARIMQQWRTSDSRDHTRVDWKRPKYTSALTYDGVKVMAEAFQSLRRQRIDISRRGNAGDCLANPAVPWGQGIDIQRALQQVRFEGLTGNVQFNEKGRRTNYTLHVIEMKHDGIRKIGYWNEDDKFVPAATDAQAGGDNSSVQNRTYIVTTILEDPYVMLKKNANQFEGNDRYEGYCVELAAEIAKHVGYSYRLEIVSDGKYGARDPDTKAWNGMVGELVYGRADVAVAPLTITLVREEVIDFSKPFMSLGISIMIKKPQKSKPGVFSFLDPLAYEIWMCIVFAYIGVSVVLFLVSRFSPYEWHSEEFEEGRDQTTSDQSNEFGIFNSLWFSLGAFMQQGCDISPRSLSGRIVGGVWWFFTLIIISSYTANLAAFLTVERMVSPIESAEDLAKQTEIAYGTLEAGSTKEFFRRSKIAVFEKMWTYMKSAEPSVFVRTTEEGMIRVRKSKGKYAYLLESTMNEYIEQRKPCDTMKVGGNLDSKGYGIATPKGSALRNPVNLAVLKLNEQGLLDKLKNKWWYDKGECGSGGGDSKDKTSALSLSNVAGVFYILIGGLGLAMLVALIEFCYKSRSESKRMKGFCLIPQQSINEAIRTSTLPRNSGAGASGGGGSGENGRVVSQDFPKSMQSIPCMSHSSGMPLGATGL

SMILES	EC2x [1] [µM]	EC5x [1] [µM]	further results
O=S1(=O)NC2CCCN2c2ccccc21 (racemic)	60	160	–
O=S1(=O)N[C@@H]2CCCN2c2ccccc21	300	–	–
O=S1(=O)N[C@H]2CCCN2c2ccccc21	–	–	EC2x [2]: 35 µM; EC5x [2]: 70 µM; EC2x [3]: > 300 µM; EC2x [4]: > 300 µM

Second part, led by results:

EC2x [1] [µM]	EC5x [1] [µM]	SMILES	further results
2	10	NS(=O)(=O)c1cc2c(cc1Cl)NC(C1CC3C=CC1C3)NS2(=O)=O (configuration not stated)	–
300	–	O=C(c1ccc2c(c1)OCO2)N1CCCCC1	–
45	110	O=C(c1ccc2c(c1)OCCO2)N1CC=CCC1	–
